Measurements: patent US9995734B2, “Human T cell line assay for evaluating the immunologic identity of glatiramer acetate preparations” (Mylan Inc., priority 2013, dated 2018)

Test system: Donor 2 Human T-Cell Lines
Experiment: BrdU uptake proliferation assay, Donor 2 T-cell lines stimulated with GMA
Format: cell-based
Details: 100 μg/mL GMA; for BrdU uptake: Day 13
Procedure: Proliferation was evaluated by measuring ATP content using a luminescent method (CellTiter Glo Luminescent Cell Viability Assay, Promega, Madison, Wis., cat. #G7571) or by measuring BrdU uptake by ELISA (Millipore cat. #2752), in both cases following kit instructions. A split well format was used. Cells in each well were resuspended and 65 μl transferred to the wells of each of two new U-bottom 96-well plates, to generate the replicate plates. […] Therefore, all three plates received autologous APC (PBMC) treated with mitomycin C to prevent cell division. […] The latter two plates were incubated for 3 days at 37° C., 6% CO2 before adding CellTiter Glo or BrdU and measuring signal. IL-2 was added at 10 U/mL to the original 96-well plate for expansion on Day 17. For subsequent screenings, mitomycin-treated EBV-transformed autologous B-LCL (2×10^5 to 5×10^5 cells/mL) were used as APC.
PBMC were obtained from a normal, healthy, donor having MHC Class II HLA-DRβ1 04:01, 04:04 (Donor 2). […] Nine presumptive GA-specific human T-cell lines were selected for expansion and further analysis based on an increase in the OD of the GA-stimulated test sample of at least 50% relative to an unstimulated control sample.

glatiramer acetate [GMA] was tested, and the BrdU uptake (206-1A6, control 0.220) was 0.563 OD450, the BrdU uptake (206-1A7, control 0.329) was 0.688 OD450 and the BrdU uptake (206-1A11, control 0.151) was 0.452 OD450. The BrdU uptake (206-1C12, control 0.272) was 0.626 OD450, the BrdU uptake (206-1H1, control 0.109) was 0.447 OD450 and the BrdU uptake (206-1H2, control 0.095) was 0.526 OD450. It also gave a BrdU uptake (206-2A1, control 0.259) of 0.548 OD450, a BrdU uptake (206-2A10, control 0.162) of 0.444 OD450 and a BrdU uptake (206-2C3, control 0.146) of 0.358 OD450. For the same substance, the “difference in BrdU uptake from control” value (nine Donor 2 lines of Table 17) was “greater than two-fold” and the “increase in the OD of the GA-stimulated test sample relative to an unstimulated control sample” value (nine Donor 2 lines of Table 17) was “at least 50%”.
